In patent publication US6353124B1, “Therapeutic compound-fatty acid conjugates” (priority 1993, dated 2002):
Read-outs that look alike come from different tables or passages of the source.

Assays:
UVB induced oedema = UVB induced oedema (net skin fold thickness increase) in SKH-1 hairless mice, topical application; assay type: in vivo; conditions: for photoprotection against UVB induced oedema against interval of application: crude 2% (30% purity, contaminated with GTP2), 100 μl, days -5 to 0, FIG. 3; for effect on oedema at 2%: 2% ibuprofen, as the conjugate or as the free drug; for Immediate Activity Results, highest to lowest (ranking): painted after 3 MED UVB, 4% ibuprofen equivalent (Ibu-ATP3 at 2%), FIG. 5
Method: The vehicle used was a variation of previously published vehicles and consisted of ethanol:DMSO at a 5:1 ratio. […] The oedema was then determined by measuring the skin fold thickness (SFT) of a folded mid-dorsal piece of skin using a hand-held micrometer. Measurements were taken at 0 hours, just prior to UVB exposure and at 24 hours post UVB exposure. A control group, painted with 60 or 100 μl of the vehicle, was used to determine the increase in skin oedema due to the inflammatory response. […] The pre UVB SFT measurement was subtracted from the 24 hour SFT measurement, to determine the Net Skin Fold Thickness increase (NSFT).

UVB induced burns = assay: Effect on UVB induced burns in mice, topical application; assay type: in vivo
Method: (§1) Method Groups of 3 female mice were exposed to 3 MED of UVB on their dorsal surface and then were immediately painted (by smoothing the topical solution over the dorsal surface) with 60 μl or 100 μl of vehicle or vehicle containing increasing concentrations of NSAID's or NSAID fatty acid conjugates. The vehicle used was a variation of previously published vehicles and consisted of ethanol:DMSO at a 5:1 ratio. The test NSAID's and their conjugates were either applied after UVB irradiation to reduce the possibility of sun-screening effects (Day 0), or 1 to 5 days prior to UVB exposure. The oedema was then determined by measuring the skin fold thickness (SFT) of a folded mid-dorsal piece of skin using a hand-held micrometer. Measurements were taken at 0 hours, just prior to UVB exposure and at 24 hours post UVB exposure. A control group, painted with 60 or 100 μl of the vehicle, was used to determine the increase in skin oedema due to the inflammatory response. […] The pre UVB SFT measurement was subtracted from the 24 hour SFT measurement, to determine the Net Skin Fold Thickness increase (NSFT).
Individual scores are presented for each mouse ie a result indicated as 5,4,3 is interperated as the first mouse having a severe burn, the second mouse a moderate to severe burn and the third mouse a moderate burn.

Skh-1 mouse = assay: Toxicity and tolerability of topically applied indomethacin in Skh-1 mice; assay type: in vivo; conditions: painted on dorsal surface, range 0.1% to 2.5% tested
Method: as §1
As a preliminary study the ability of indomethacin to protect against oedema in Skh-1 mouse was determined. Indomethacin over a concentration range from 0.1% to 2.5% was applied after the mice had been irradiated with UVB; non-irradiated controls were also run. […]

sunburn erythema [1] = conditions: 2.5% in propylene glycol:ethanol:dimethylacetamide (19:19:2), 3 MED of UV light, humans; cited from earlier work
sunburn erythema [2] = conditions: 2.5% in propylene glycol:ethanol:dimethylacetamide (19:19:2), 3 MED of UV light, guinea-pigs; cited from earlier work

Molecule: indomethacin-glycine-Tris-dipalmitate [Indo-GTP2]
- photoprotection against UVB induced oedema against interval of application (UVB induced oedema): most protective 5 days prior to irradiation with UVB
- photoprotection against UVB induced oedema against interval of application (UVB induced oedema; listed as indomethacin-glycine-Tris-dipalmitate): most pronounced at 5 days prior to exposure with UVB
- prolonged and immediate protective activity against UVB induced oedema (UVB induced oedema; high purity, 2% (indomethacin equivalent), painted 5 days prior to or immediately after UVB, compared with Indo-GTP3, Indo-EP1, Indo-GEP1, FIG. 4): highest levels of prolonged and immediate activity

Molecule: COc1ccc2c(c1)c(CC(=O)O)c(C)n2C(=O)c1ccc(Cl)cc1 [indomethacin, 1-(4-Chlorobenzoyl)-5-methoxy-2-methyl-1H-indole-3-acetic acid]
- anti-inflammatory effect at 0.1% (UVB induced oedema; 0.1% applied after UVB, 24 hours): mild anti-inflammatory effect
- erythema and oedema with concentration (UVB induced oedema; 0.1% to 2.5% applied after UVB): decrease in erythema and oedema with increasing concentrations
- protection against UVB induced oedema, applied 3 days prior to UVB (UVB induced oedema; 1% indomethacin, 3 days prior to exposure, FIG. 2): approximately 50%
- protection against UVB induced oedema, applied 5 days prior to UVB (UVB induced oedema; 1% indomethacin, 5 days prior to exposure, FIG. 2): not present
- protective effect on UVB induced oedema against interval of application (UVB induced oedema; 100 μl of 1% solution, days -5 to -1 before UVB and Day 0, NSFT at 24 hours, FIG. 2): loses its protective effect on UVB induced oedema as the interval of application prior to exposure increases
- concentration giving maximal protection against erythema and oedema (UVB induced oedema; applied after UVB, 24 hours, range 0.1% to 2.5%): ≥ 1%
- effect on burn repair (UVB induced burns; indomethacin levels that prevent oedema): little or no effect on burn repair
- topical concentration lethal after 36 hours (gastrointestinal haemorrhage) (Skh-1 mouse): ≥ 2%
- protection against sunburn erythema (sunburn erythema [1]): total protection
- protection against sunburn erythema (sunburn erythema [2]): total protection

Molecule: α-Methyl-4-(2-methylpropyl)benzene acetic acid [Ibu cont]
- effect on oedema at 2% (UVB induced oedema): little effect on oedema
- Immediate Activity Results, highest to lowest (ranking) (UVB induced oedema): 4% Ibu=4% Ibu-ATP>4% Ibu-ATP2>4% Ibu-AT=2% Ibu-ATP3

Molecule: ibuprofen-alanine-Tris-tripalmitate [Ibu-ATP3]
- Immediate Activity Results, highest to lowest (ranking) (UVB induced oedema): 4% Ibu=4% Ibu-ATP>4% Ibu-ATP2>4% Ibu-AT=2% Ibu-ATP3

Molecule: ibuprofen-alanine-Tris-monopalmitate [Ibu ATP1]
- effect on oedema at 2% (UVB induced oedema): little effect on oedema
- Immediate Activity Results, highest to lowest (ranking) (UVB induced oedema): 4% Ibu=4% Ibu-ATP>4% Ibu-ATP2>4% Ibu-AT=2% Ibu-ATP3
- protective effect on UVB induced burns (UVB induced burns; 2%, painted after 3 MED UVB, compared with unmodified ibuprofen): protective effect on UVB induced burns to a much greater extent than unmodified ibuprofen

Molecule: ibuprofen-alanine-Tris [Ibu-AT]
- Immediate Activity Results, highest to lowest (ranking) (UVB induced oedema): 4% Ibu=4% Ibu-ATP>4% Ibu-ATP2>4% Ibu-AT=2% Ibu-ATP3

Molecule: ibuprofen-alanine-Tris-dipalmitate [Ibu-ATP2]
- Immediate Activity Results, highest to lowest (ranking) (UVB induced oedema): 4% Ibu=4% Ibu-ATP>4% Ibu-ATP2>4% Ibu-AT=2% Ibu-ATP3
